Measurements reported in patent US9067974B2, “Polymyxin derivatives and uses thereof” (priority 2006, dated 2015).
Bridge positions count the residues as written; N and C are the ends. Square brackets hold non-standard residues; d marks the D form. Peptide text beside a SMILES is read from it. * marks the point of attachment. Octanoyl = CCCCCCCC(=O)*; Dab = NCC[C@H](N)C(=O)O; Abu = CC[C@H](N)C(=O)O

Tests used:
[1] = Two-week intravenous toxicity study in young rats; assay type: in vivo
Method: Toxicity in young rats (weighing approx. 150 g in the beginning of the study) was determined by administering doses (1, 2, 4, 8, 16, and 32 mg/kg per day) of NAB7061 as well as the control compound polymyxin B intravenously twice (2) a day for two weeks. A group of ten (10) rats was studied for each dosis regimen. Clinical observations were made daily, the body weight measured twice weekly, and the food consumption twice weekly. In the end of week 2, all animals were sacrificed.
Histopathology of kidneys was performed for each animals and histopathology of all tissues was performed in three high-dose groups receiving NAB7061.

K. pneumoniae F136 = assay: E-test MIC of antibiotics on Mueller-Hinton agar with or without NAB7061 (4 μg/ml); sensitization factor = MIC ratio absence/presence; assay type: cell-based, Klebsiella pneumoniae
Method: (§1) MICs were determined by using E-strips (Biodisk Ltd., Solna, Sweden) according to the manufacturer's instructions.
(§2) The strains originated from ATCC (11 strains), CCUG (11 strains), and NCTC (The National Collection of Type Cultures, Colindale, U.K.; 2 strains). Eight strains (the F-strains) were purchased from Mobidiag Ltd., Helsinki, Finland. The source of E. coli IH3080 has been given in Example 2. Sensitization factor was defined as in Example 7.

S. marcescens ATCC8100 = assay: as above; assay type: cell-based, Serratia marcescens
Method: as §1, §2

[2] = test system: three strains of A. baumannii; assay: E-test sensitization by NAB7061 (4 μg/ml), summary over A. baumannii strains; assay type: cell-based, Acinetobacter baumannii
Description: as §2
Strains of K. pneumoniae remained somewhat more resistant to both antibiotics, and the sensitization factors varied between 10 and 500.

E. coli CCUG41424 = assay: E-test MIC of antibiotics on Mueller-Hinton agar with or without NAB7061 (4 μg/ml); sensitization factor = MIC ratio absence/presence; assay type: cell-based, Escherichia coli
Method: as §1, §2

E. coli CCUG41425 = assay: as above; assay type: cell-based, Escherichia coli
Method: as §1, §2

E. coli NCTC13351 = assay: as above; assay type: cell-based, Escherichia coli
Method: as §1, §2

E. coli CCUG41432 = assay: as above; assay type: cell-based, Escherichia coli
Method: as §1, §2

E. coli CCUG41421 = assay: as above; assay type: cell-based, Escherichia coli
Method: as §1, §2

E. coli CCUG41427 = assay: as above; assay type: cell-based, Escherichia coli
Method: as §1, §2

E. coli CCUG41422 = assay: as above; assay type: cell-based, Escherichia coli
Method: as §1, §2

[3] = test system: E. coli (ATCC25922 and IH3080), K. pneumoniae ATCC13883, and E. cloacae ATCC23355; assay: E-test sensitization by NAB7061 (4 μg/ml), summary over the tested strains of Table 7; assay type: cell-based; details: range over the tested strains
Method: as §1

CCCCCCCC(=O)N[C@H](C(=O)N[C@@H](CC)C(=O)N[C@H]1CCNC(=O)[C@H]([C@@H](C)O)NC(=O)[C@H](CCN)NC(=O)[C@H](CCN)NC(=O)[C@H](CC(C)C)NC(=O)[C@@H](Cc2ccccc2)NC(=O)[C@H](CCN)NC1=O)[C@@H](C)O [NAB 7061, OA-Thr-Abu-cy[Dab-Dab-DPhe-Leu-Dab-Dab-Thr-]] (Octanoyl-T[Abu][Dab][Dab][dF]L[Dab][Dab]T; lactam 3-C)
Rise of blood urea nitrogen (BUN) versus control or low dose group ([1]; rat, in vivo, 16 mg/kg/day): no such a rise was found | Lowest dose that negatively influenced the body weight gain ([1]; rat, in vivo, iv): 8 mg/kg per day | Survival throughout the study ([1]; rats, doses 1 to 32 mg/kg per day intravenously for two weeks): all rats receiving NAB7061 remained alive throughout the study | General pathology and histopathology of organs and kidneys ([1]; rats, two weeks intravenous dosing): No NAB7061-related pathological findings were found | MIC of clarithromycin in the presence of 4 μg/ml of NAB 7061 (K. pneumoniae F136): 2 µg/mL | MIC of rifampin in the presence of 4 μg/ml of NAB 7061 (K. pneumoniae F136): 0.75 µg/mL | MIC of rifampin in the presence of 4 μg/ml of NAB 7061 (S. marcescens ATCC8100): 16 µg/mL | Resulting MIC to rifampin in the presence of NAB7061 (4 μg/ml) [2]: ≤ 0.125 µg/mL | MIC of clarithromycin in the presence of 4 μg/ml of NAB 7061 (E. coli CCUG41424): 0.125 µg/mL | Sensitization factor to rifampin (E. coli CCUG41424; NAB 7061 4 μg/ml): 85-94 | MIC of clarithromycin in the presence of 4 μg/ml of NAB 7061 (E. coli CCUG41425): 0.047 µg/mL | MIC of clarithromycin in the presence of 4 μg/ml of NAB 7061 (E. coli NCTC13351): 0.032 µg/mL | MIC of rifampin in the presence of 4 μg/ml of NAB 7061 (E. coli NCTC13351): 0.032 to 0.047 µg/mL | Sensitization factor to rifampin (E. coli NCTC13351; NAB 7061 4 μg/ml): 340-500 | MIC of clarithromycin in the presence of 4 μg/ml of NAB 7061 (E. coli CCUG41432): 0.064 µg/mL | MIC of rifampin in the presence of 4 μg/ml of NAB 7061 (E. coli CCUG41432): 0.032 µg/mL | Sensitization factor to rifampin (E. coli CCUG41432; NAB 7061 4 μg/ml): 180-250 | MIC of clarithromycin in the presence of 4 μg/ml of NAB 7061 (E. coli CCUG41421): 0.125 µg/mL | MIC of clarithromycin in the presence of 4 μg/ml of NAB 7061 (E. coli CCUG41427): 0.064 µg/mL | MIC of rifampin in the presence of 4 μg/ml of NAB 7061 (E. coli CCUG41427): 0.032 to 0.064 µg/mL | Sensitization factor to rifampin (E. coli CCUG41427; NAB 7061 4 μg/ml): 100-250 | MIC of clarithromycin in the presence of 4 μg/ml of NAB 7061 (E. coli CCUG41422): 0.25 µg/mL | Sensitization factor to rifampin (E. coli CCUG41422; NAB 7061 4 μg/ml): 170-256 | Sensitization factor to azithromycin [3]: 31-94 | Sensitization factor to clarithromycin [3]: 63-380
